Data reported in patent US11203598B2, “Compounds for repressing cancer cell growth” (Institute For Cancer Research, priority 2018, dated 2021).

Assays:
[1] = tested on: WI38 normal lung fibroblasts; test: CellTiter-Glo luminescent cell viability assay; type: cell-based, human; details: 72 hours
Protocol: (§1) Cells were seeded in 96-well plates at a density of 5×10^3 cells per well. 20 μL of CellTiter-Glo® Reagent was added directly to the wells, following the manufacturer's protocol, and bioluminescence signal was determined using an IVIS imaging system.
Cell lines at a concentration of 4×10^3 cells/well were seeded out on an opaque 96-well plate and treated with CB002 and Analog 11 in ranging doses starting from 200 μmol/L with DMSO controls. At 72 hours after treatment, cells were mixed with 30 μL Cell Titer-Glo reagent and after ten minutes of room temperature incubation were imaged using IVIS imaging system (Xenogen).
(§2) To begin establishing the potential of CB002 as a candidate therapeutic agent, its therapeutic index was determined by treating cancer (DLD-1, SW480, and RXF393) and normal (WI38 and MRC5) cell lines with concentrations of CB002 ranging from 0-500 μM for a period of 72 hours and assessing cell viability by the CellTiter-Glo® luminescence assay (see, FIG. 2). CB002 has a significant therapeutic index among the cells tested.

[2] = tested on: DLD-1 cells; test: CellTiter-Glo luminescent cell viability assay; type: cell-based; details: Homo sapiens; DLD-1, 72 hours, GraphPad
Protocol: as §1, §2

[3] = tested on: DLD-1 p73kd cells; test: CellTiter-Glo luminescent cell viability assay; type: cell-based; details: Homo sapiens, 72 hours, GraphPad
Protocol: as §1, §2

[4] = tested on: MRC5 normal lung fibroblasts; test: CellTiter-Glo luminescent cell viability assay; type: cell-based; details: Homo sapiens, MRCS (normal), 72 hours, GraphPad
Protocol: as §1, §2

[5] = tested on: RXF393 renal cancer cells; test: CellTiter-Glo luminescent cell viability assay; type: cell-based; details: Homo sapiens, RXF 393; RXF393, 72 hours, GraphPad
Protocol: as §1, §2

[6] = tested on: normal (WI38 and MRC5) cell lines; test: CellTiter-Glo cell viability, normal cell lines (summary); type: cell-based; details: Homo sapiens; 72 hours
Protocol: as §1, §2

[7] = tested on: cancer (DLD-1, SW480, and RXF393) cell lines; test: CellTiter-Glo cell viability, panel of cancer cell lines (summary); type: cell-based; details: Homo sapiens; 72 hours
Protocol: as §1, §2

[8] = target: T1, R175H p53 mutant in HCT116 p53 R175H cells (Homo sapiens, UniProt P04637, R175H); test: Western blot of mutant p53; type: cell-based
T1 construct: V5 (only from the vector name pLenti6/V5); host or cells: HCT116 p53-/- cells, lentivirus infection, blasticidin-selected pooled clones
Protocol: HCT116 p53^−/− cells (previously obtained from the Vogelstein Laboratory, Johns Hopkins University) were infected with a lentivirus vector containing the p53 R175H mutant (pLenti6/V5-p53_R175H, Addgene). Cells were selected with blasticidin (8 μg/mL) containing media cultured for 10 days. Blasticidin-resistant clones (pooled clones) were screened for expression of the p53 R175H mutation by Western blot analysis with p53 DO-1 antibody.
(§3) After treatment, cells were harvested by trypsinization, washed with PBS, and lysed with RIPA buffer (Sigma-Aldrich) for 30 minutes to 1 hour at 4° C. Protein lysates were spun down and supernatant was collected. Protein quantification was performed using a Pierce™ BCA Protein Assay Kit (Thermo Fisher Scientific). 1×NuPAGE® LDS sample buffer (Thermo Fisher Scientific) and 2-Mercaptoethanol as the reducing agent (Sigma-Aldrich) were added to protein lysates, followed by boiling for 15 minutes at 95° C. Equal total protein amounts samples were loaded into NuPAGE™ Novex™ 4-12% Bis-Tris Protein Gels (1.5 mm, Thermo Fisher Scientific) and gel eletrophoresis was performed with NuPAGE™ MES SDS Running Buffer. Proteins were transferred onto an Immobilon-P membrane (PVDF, EMD Millipore) using a Bio-Rad system with a 10% Tris-Glycine and 10% methanol transfer buffer diluted in distilled and deionized water. After transfer, membranes were blocked with 10% milk in TBST solution and then incubated overnight with primary antibody, washed with TBST and incubated with secondary antibody for 1 hour. Incubations were performed in 5% milk in TBST solution. Signal was detected by using a chemiluminescent detection kit, followed by autoradiography. The following antibodies were used: p53 (DO-1, 1:1000, Santa Cruz), p73 (1:1000, Bethyl Laboratories), p21 and NOXA (1:250, EMD Millipore), DR5, FADD, cleaved caspase 3, cleaved caspase 8, cleaved PARP, and LC3B (1:1000, Cell Signaling), and β-actin (1:10000, Sigma).

[9] = target: T2, endogenous R175H p53 in RXF393 renal cancer cells (Homo sapiens, UniProt P04637, R175H); test: Western blot of mutant p53; type: cell-based
T2 construct: RXF393 renal cancer cells that endogenously express R175H p53; endogenous in cells; host or cells: RXF393 renal cancer cells
Protocol: as §3, with “The following antibodies were used: p53 (DO-1, 1:1000, Santa Cruz), p73 (1:1000, Bethyl Laboratories), p21 and NOXA (1:250, EMD Millipore), DR5, FADD, cleaved caspase 3, cleaved caspase 8, cleaved PARP, and LC3B (1:1000, Cell Signaling), and β-actin (1:10000, Sigma).” left out

[10] = tested on: cell cycle G2 checkpoint; test: propidium iodide staining cell cycle analysis; type: cell-based; details: 24 hour treatment, alone and with etoposide
Protocol: Referring to FIG. 22 (panels A-F), propidium iodide staining cell cycle analysis for 24 hour treatment with DMSO (panel A), CB002 (panel B), CB002 and etoposide (panel C), etoposide (panel D), caffeine (panel E), and caffeine and etoposixe (panel F). […] The deregulation of the G2 checkpoint as a mechanism by caffeine prevents […] tumor cells that are treated with DNA damaging drugs, such as etoposide, from arresting to have time to repair, and thus sensitizes cancer cells to cell death.

[11] = tested on: Noxa in 8226 bortezomib resistant multiple myeloma cell line; test: Western blot of Noxa; type: cell-based; details: 25 μM Analog 4, 100 μM Analog 11
Protocol: Referring to FIG. 20 (panel C), 1×10^6 cells/well were seeded in a 12-well plate. 8226 parental and resistant multiple myeloma cell lines were treated with 100 μM CB002, 25 μM Analog 4, or 100 μM Analog 11.

SMILES	IC50 in Wi38 cells compared with colorectal cancer cells ([1]; versus SW480, DLD-1, HCT116 and HCT116 p53-null)	IC50 ([1]; Homo sapiens, WI-38, WI38 (normal), GraphPad)	IC50 [2]	IC50 [3]	IC50 [4]	IC50 [5]	IC50 [6]	IC50 [7]	R175H mutant p53 protein expression ([8]; 50 and 100 μM, 16 and 24 hours, versus DMSO)	R175H p53 mutant protein expression ([8]; 50 or 100 μM with MDM2 inhibitor Nutlin-3A, 24 hours)	R175H mutant p53 protein expression ([8]; co-treatment with chloroquine, 16 and 24 hours)	R175H mutant p53 protein expression ([8]; with proteasome inhibitor MG132 (5 and 10 μM), 24 hours)	mutant p53 degradation, with Ganetespib ([9]; 96 μM CB002 and/or 0.1 μM Ganetespib, 16 hours)	R175H p53 mutant expression ([9]; 100 and 150 μM, 16 and 24 hours)	effect on cell cycle G2 checkpoint [10]	Noxa expression [11]
Cn1c(=O)c2[nH]c(Nc3ccccc3)nc2n(C)c1=O [CB002, 8-anilino-1,3-dimethyl-3,7-dihydro-1H-purine-2,6-dione]	much higher	642 µM	161 µM	240 µM	647 µM	400 µM	~650 µM	96 to 400 µM	decrease in mutant p53 protein expression	still resulted in reduction of R175H p53 mutant protein expression	did not rescue R175H mutant p53 protein expression	appeared to rescue R175H mutant p53 protein expression	enhanced CB002-mediated mutant p53 degradation	decrease R175H p53 mutant expression	does not appear to deregulate the G2 cell cycle checkpoint	–
Cn1c(=O)c2c(nc(Nc3ccccc3)n2C)n(C)c1=O [Analog 11, 8-anilino-1,3,7-trimethyl-3,7-dihydro-1Hpurine-2,6-dione]	–	–	–	–	–	–	–	–	–	–	–	–	–	–	–	able to induce Noxa expression
